# Test results: patent publication US6309630A, “Non-steroidal anti-inflammatory ophthalmic suspensions” (Insite Vision Incorporated, priority 1994, dated 2001)
# Test: Percent Diclofenac Sodium in Suspension (dependence on concentration and pH)
# Assay type: physicochemical
# Details: below a pH of about 6.8; formulation containing 1% diclofenac sodium
# From the text: The solubility of non-steroidal anti-inflammatory agents is pH dependent, i.e., normally the higher the pH, the higher the solubility of the drug in the formulation. […] Formulating the composition as a suspension rather than as a solution inhibits immediate contact between the drug and tissues of the eye and in that way reduces the stinging and burning sensation experienced when a solution of such drugs places all of the drug in immediate contact with the ocular tissues.
# Thus, by providing at least some of the diclofenac in suspension, via pH control, lower transient burning and stinging would be observed when administered to patients.
structure (smiles),measurement,value
"O=C(O)Cc1ccccc1Nc1c(Cl)cccc1Cl [Diclofenac Sodium, sodium ortho-(2,6-dichlorophenyl)aminophenylacetate acid]",diclofenac in suspension (in words),virtually all of the diclofenac in suspension
